Reference: ChEMBL document CHEMBL5352441, “Modulation of FLT3-ITD and CDK9 in acute myeloid leukaemia cells by novel proteolysis targeting chimera (PROTAC)” (2022)
Calls of active or inactive are those of the source. No cut-off for these calls is given here.

Legend:
[1] = target: Receptor-type tyrosine-protein kinase FLT3 (Homo sapiens) (UniProt P36888); experiment: Inhibition of FLT3 signalling pathway in human MV4-11 cells assessed as reduction in ERK1/2 phosphorylation at T202/Y204 residues at 0.1 to 0.5 uM preincubated for 90 mins with 4-hydroxythalidomide followed by compound addition and further incubated for 16 hrs by immunoblot analysis; format: cell-based; conditions: dose 0.1-0.5 µM
MV4-11 [2] = experiment: Induction of cell cycle arrest in human MV4-11 cells assessed as accumulation of cells at subG1 phase at 2.5 uM incubated for 16 hrs by PI staining based flow cytometry analysis (reference value: 10.51%); format: functional
MV4-11 [3] = experiment: Induction of cell cycle arrest in CRBN-deficient human MV4-11 cells assessed as accumulation of cells at G2/M phase at 0.02 uM incubated for 16 hrs by PI staining based flow cytometry analysis (reference value: 9.34%); format: functional
[4] = tested on: Receptor-type tyrosine-protein kinase FLT3 (Homo sapiens), P36888 [UNDEFINED MUTATION]; experiment: Inhibition of FLT3 in human MV4-11 cells harboring FLT3-ITD mutation assessed as reduction in ERK1/2 phosphorylation at T202/Y204 residue at 0.004 to 2.5 uM incubated for 16 hrs by immunoblot analysis; format: cell-based; conditions: dose 0.004-2.5 µM
[5] = target: Protein cereblon/Cyclin-dependent kinase 9 (Homo sapiens) (UniProt P50750+Q96SW2); experiment: PROTAC activity at CRBN/CDK9 in CRBN-deficient human MV4-11 cells assessed as induction of protein degradation at 0.004 to 2.5 uM incubated for 16 hrs by immunoblot analysis; format: cell-based; conditions: dose 0.004-2.5 µM
MV4-11 [6] = experiment: Induction of cell cycle arrest in CRBN-deficient human MV4-11 cells assessed as accumulation of cells at sub-G1 phase at 0.5 uM incubated for 16 hrs by PI staining based flow cytometry analysis (reference value: 12.52%); format: functional
MV4-11 [7] = experiment: Induction of cell cycle arrest in human MV4-11 cells assessed as accumulation of cells at G1 phase at 0.004 uM incubated for 16 hrs by PI staining based flow cytometry analysis (reference value: 62.97%); format: functional
MV4-11 [8] = experiment: Downregulation of MCL-1 gene expression in human MV4-11 cells incubated for 4 hrs by qRT-PCR analysis; format: functional, cell-based; conditions: dose 0.004-2.5 µM
[9] = target: Receptor-type tyrosine-protein kinase FLT3 (Homo sapiens) (UniProt P36888); experiment: Inhibition of FLT3 autophosphorylation at Y589/591 residue in human MV4-11 cells at 0.1 to 0.5 uM preincubated for 90 mins with 4-hydroxythalidomide followed by compound addition and further incubated for 16 hrs by immunoblot analysis; format: cell-based; conditions: dose 0.1-0.5 µM
MV4-11 [10] = experiment: Induction of apoptosis in human MV4-11 cells assessed as activation of caspase 3 at 0.1 to 0.5 uM preincubated for 90 mins with 4-hydroxythalidomide followed by compound addition and further incubated for 16 hrs in presence of Ac-DEVD-AMC by fluorescence microplate reader analysis; format: functional, cell-based; conditions: dose 0.1-0.5 µM
MV4-11 [11] = experiment: Induction of apoptosis in CRBN-deficient human MV4-11 cells assessed as activation of caspase 7 at 0.004 to 25 uM incubated for 16 hrs in presence of Ac-DEVD-AMC by fluorescence microplate reader analysis; format: functional, cell-based; conditions: dose 0.004-25 µM
MV4-11 [12] = experiment: Induction of cell cycle arrest in human MV4-11 cells assessed as accumulation of cells at subG1 phase at 0.004 uM incubated for 16 hrs by PI staining based flow cytometry analysis (reference value: 10.51%); format: functional
MV4-11 [13] = experiment: Induction of cell cycle arrest in CRBN-deficient human MV4-11 cells assessed as accumulation of cells at G2/M phase at 2.5 uM incubated for 16 hrs by PI staining based flow cytometry analysis (reference value: 9.34%); format: functional
MV4-11 [14] = experiment: Induction of cell cycle arrest in CRBN-deficient human MV4-11 cells assessed as accumulation of cells at G1 phase at 0.004 uM incubated for 16 hrs by PI staining based flow cytometry analysis (reference value: 54.05%); format: functional
[15] = target: T1, Protein cereblon/Receptor-type tyrosine-protein kinase FLT3 (Homo sapiens) (UniProt P36888+Q96SW2); experiment: PROTAC activity at CRBN/FLT3 in human MV4-11 cells harboring FLT3-ITD mutation assessed as induction of protein degradation at […] incubated for 16 hrs by immunoblot analysis; format: cell-based
[16] = target: T1, Protein cereblon/Receptor-type tyrosine-protein kinase FLT3 (Homo sapiens); experiment: PROTAC activity at CRBN/FLT3 in human MV4-11 cells at 0.1 to 0.5 uM preincubated for 90 mins with MG132 followed by compound addition and further incubated for 16 hrs by immunoblot analysis; format: cell-based; conditions: dose 0.1-0.5 µM
MV4-11 [17] = experiment: Induction of cell cycle arrest in human MV4-11 cells assessed as accumulation of cells at G2/M phase at 0.1 uM incubated for 16 hrs by PI staining based flow cytometry analysis (reference value: 10.86%); format: functional
MV4-11 [18] = experiment: Induction of cell cycle arrest in CRBN-deficient human MV4-11 cells assessed as accumulation of cells at sub-G1 phase at 0.1 uM incubated for 16 hrs by PI staining based flow cytometry analysis (reference value: 12.52%); format: functional
MV4-11 [19] = experiment: Induction of cell cycle arrest in CRBN-deficient human MV4-11 cells assessed as accumulation of cells at sub-G1 phase at 0.004 uM incubated for 16 hrs by PI staining based flow cytometry analysis (reference value: 12.52%); format: functional
CCRF-CEM = experiment: Antiproliferative activity against human CEM cells assessed as cell growth inhibition incubated for 72 hrs by resazurin dye based fluorescence analysis; format: functional
U-937 = experiment: Antiproliferative activity against human U-937 cells assessed as cell growth inhibition incubated for 72 hrs by resazurin dye based fluorescence analysis; format: functional
MV4-11 [20] = experiment: Induction of apoptosis in human MV4-11 cells assessed as activation of caspase 7 incubated for 16 hrs in presence of Ac-DEVD-AMC by fluorescence microplate reader analysis; format: functional, cell-based; conditions: dose 0.004-2.5 µM
MV4-11 [21] = experiment: Induction of cell cycle arrest in human MV4-11 cells assessed as accumulation of cells at S phase at 0.02 uM incubated for 16 hrs by PI staining based flow cytometry analysis (reference value: 26.16%); format: functional
[22] = target: T1, Protein cereblon/Receptor-type tyrosine-protein kinase FLT3 (Homo sapiens); experiment: PROTAC activity at CRBN/FLT3 in human MV4-11 cells at 0.1 to 0.5 uM preincubated for 90 mins with 4-hydroxythalidomide followed by compound addition and further incubated for 16 hrs by immunoblot analysis; format: cell-based; conditions: dose 0.1-0.5 µM
MV4-11 [23] = experiment: Induction of cell cycle arrest in human MV4-11 cells assessed as accumulation of cells at S phase at 0.004 uM incubated for 16 hrs by PI staining based flow cytometry analysis (reference value: 26.16%); format: functional
MV4-11 [24] = experiment: Induction of cell cycle arrest in CRBN-deficient human MV4-11 cells assessed as accumulation of cells at S phase at 0.02 uM incubated for 16 hrs by PI staining based flow cytometry analysis (reference value: 36.91%); format: functional
MV4-11 [25] = experiment: Induction of cell cycle arrest in CRBN-deficient human MV4-11 cells assessed as accumulation of cells at sub-G1 phase at 0.02 uM incubated for 16 hrs by PI staining based flow cytometry analysis (reference value: 12.52%); format: functional
MV4-11 [26] = experiment: Induction of cell cycle arrest in CRBN-deficient human MV4-11 cells assessed as accumulation of cells at G1 phase at 0.5 uM incubated for 16 hrs by PI staining based flow cytometry analysis (reference value: 54.05%); format: functional

T1 sequence (P36888 27-993 limits assumed): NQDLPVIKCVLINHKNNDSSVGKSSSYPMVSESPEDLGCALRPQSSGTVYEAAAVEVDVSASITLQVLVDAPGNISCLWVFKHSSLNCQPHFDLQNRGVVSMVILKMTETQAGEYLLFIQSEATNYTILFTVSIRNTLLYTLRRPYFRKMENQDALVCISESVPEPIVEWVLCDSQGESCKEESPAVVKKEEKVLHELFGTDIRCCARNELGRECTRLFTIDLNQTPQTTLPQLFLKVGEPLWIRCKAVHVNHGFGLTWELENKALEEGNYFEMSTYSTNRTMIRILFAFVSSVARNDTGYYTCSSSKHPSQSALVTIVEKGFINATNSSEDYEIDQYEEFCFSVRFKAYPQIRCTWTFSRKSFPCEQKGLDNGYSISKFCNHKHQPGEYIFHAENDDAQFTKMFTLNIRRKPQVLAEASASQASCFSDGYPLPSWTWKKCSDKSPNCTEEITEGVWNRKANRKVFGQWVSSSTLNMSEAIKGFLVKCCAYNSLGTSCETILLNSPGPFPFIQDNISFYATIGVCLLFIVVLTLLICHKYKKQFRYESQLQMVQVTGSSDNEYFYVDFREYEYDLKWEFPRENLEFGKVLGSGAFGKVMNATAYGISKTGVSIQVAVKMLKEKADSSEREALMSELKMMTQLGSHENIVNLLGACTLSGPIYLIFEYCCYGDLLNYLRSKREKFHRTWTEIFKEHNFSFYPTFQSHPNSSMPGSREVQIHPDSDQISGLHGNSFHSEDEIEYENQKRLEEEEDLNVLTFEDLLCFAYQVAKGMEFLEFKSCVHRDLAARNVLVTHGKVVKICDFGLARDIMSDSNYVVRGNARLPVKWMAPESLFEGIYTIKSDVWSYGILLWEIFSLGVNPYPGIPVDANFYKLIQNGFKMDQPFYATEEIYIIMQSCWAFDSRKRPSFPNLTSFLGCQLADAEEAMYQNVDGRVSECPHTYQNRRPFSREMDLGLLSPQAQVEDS
T1 sequence (Q96SW2 whole entry partner): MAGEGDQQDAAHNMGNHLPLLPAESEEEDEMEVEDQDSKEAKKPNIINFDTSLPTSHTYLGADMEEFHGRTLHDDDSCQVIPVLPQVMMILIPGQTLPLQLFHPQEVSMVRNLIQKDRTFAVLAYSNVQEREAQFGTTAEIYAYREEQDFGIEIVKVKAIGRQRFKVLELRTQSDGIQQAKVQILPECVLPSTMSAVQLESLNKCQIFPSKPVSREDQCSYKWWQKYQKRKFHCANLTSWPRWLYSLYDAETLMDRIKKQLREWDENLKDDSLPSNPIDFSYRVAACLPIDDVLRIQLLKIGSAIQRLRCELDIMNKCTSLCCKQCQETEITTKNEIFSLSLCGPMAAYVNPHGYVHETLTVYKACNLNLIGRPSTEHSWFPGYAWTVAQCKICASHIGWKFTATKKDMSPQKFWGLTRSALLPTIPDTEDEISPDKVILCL
Sequence of Receptor-type tyrosine-protein kinase FLT3 (Homo sapiens) (P36888 whole entry): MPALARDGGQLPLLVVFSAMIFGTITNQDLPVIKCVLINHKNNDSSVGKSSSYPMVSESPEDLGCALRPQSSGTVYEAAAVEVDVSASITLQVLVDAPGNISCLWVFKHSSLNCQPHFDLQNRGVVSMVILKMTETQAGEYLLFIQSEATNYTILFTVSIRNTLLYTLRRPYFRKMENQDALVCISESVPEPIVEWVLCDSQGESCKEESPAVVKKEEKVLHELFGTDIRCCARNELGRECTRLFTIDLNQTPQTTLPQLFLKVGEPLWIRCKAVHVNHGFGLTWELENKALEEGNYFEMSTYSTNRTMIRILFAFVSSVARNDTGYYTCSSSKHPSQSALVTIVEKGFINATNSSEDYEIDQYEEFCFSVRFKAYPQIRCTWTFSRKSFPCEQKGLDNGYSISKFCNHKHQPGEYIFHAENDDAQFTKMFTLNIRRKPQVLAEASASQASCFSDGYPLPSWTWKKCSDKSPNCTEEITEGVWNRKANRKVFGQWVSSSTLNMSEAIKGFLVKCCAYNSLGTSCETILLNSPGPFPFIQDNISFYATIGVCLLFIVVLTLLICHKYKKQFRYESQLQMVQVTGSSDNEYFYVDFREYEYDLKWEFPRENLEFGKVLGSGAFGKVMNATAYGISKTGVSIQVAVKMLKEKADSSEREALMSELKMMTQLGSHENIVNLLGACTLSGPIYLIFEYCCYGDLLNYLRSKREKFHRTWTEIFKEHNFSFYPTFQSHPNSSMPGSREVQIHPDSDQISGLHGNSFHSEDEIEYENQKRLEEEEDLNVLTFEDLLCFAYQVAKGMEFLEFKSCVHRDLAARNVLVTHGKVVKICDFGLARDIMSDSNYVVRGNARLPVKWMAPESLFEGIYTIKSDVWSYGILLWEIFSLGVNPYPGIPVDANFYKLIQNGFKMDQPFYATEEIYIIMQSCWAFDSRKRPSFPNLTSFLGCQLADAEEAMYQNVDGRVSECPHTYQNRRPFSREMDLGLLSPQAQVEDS
Sequence of Protein cereblon/Cyclin-dependent kinase 9 (Homo sapiens) (P50750 whole entry, looked up): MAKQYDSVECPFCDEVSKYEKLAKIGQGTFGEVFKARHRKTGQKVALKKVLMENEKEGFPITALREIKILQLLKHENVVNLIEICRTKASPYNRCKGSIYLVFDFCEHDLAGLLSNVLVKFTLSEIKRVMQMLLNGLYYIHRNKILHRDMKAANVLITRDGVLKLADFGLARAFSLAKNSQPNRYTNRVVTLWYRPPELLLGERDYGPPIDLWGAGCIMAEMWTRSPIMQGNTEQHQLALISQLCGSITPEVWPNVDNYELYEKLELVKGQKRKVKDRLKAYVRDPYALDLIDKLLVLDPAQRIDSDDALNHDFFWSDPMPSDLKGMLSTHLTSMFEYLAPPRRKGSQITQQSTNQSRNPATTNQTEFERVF
Sequence of Protein cereblon/Cyclin-dependent kinase 9 (Homo sapiens) (Q96SW2 whole entry, looked up): as the sequence (Q96SW2 whole entry partner) above
Sequence of Receptor-type tyrosine-protein kinase FLT3 (Homo sapiens), P36888 [UNDEFINED MUTATION] (P36888 whole entry, looked up, change not shown): as the sequence (P36888 whole entry) above

`NC1CCC(Nc2nc(Nc3ccc(N4CCN(CCOCCOCCNC(=O)CNc5cccc6c5C(=O)N(C5CCC(=O)NC5=O)C6=O)CC4)cc3)c3ncn(C4CCCC4)c3n2)CC1` (stereo not drawn) was tested, and the inhibition [1] was “Active”, the Activity (MV4-11 [2]) was 79.82% and the Activity (MV4-11 [3]) was 6%. The inhibition [4] was “Active”, the Activity [5] was “inactive” and the Activity (MV4-11 [6]) was 21.07%. The Activity (MV4-11 [7]) was 69.48%, the Activity (MV4-11 [8]) was “Dose-Dependent Effect” and the inhibition [9] was “Active”. For the same molecule, the Activity (MV4-11 [10]) was “inactive”, the Activity (MV4-11 [11]) was “inactive” and the Activity (MV4-11 [12]) was 11.53%. The Activity (MV4-11 [13]) was 4.56%, the Activity (MV4-11 [14]) was 63.08% and the Activity [15] was “Active”. For the same molecule, the Activity [16] was “inactive”, the Activity (MV4-11 [17]) was 3.96% and the Activity (MV4-11 [18]) was 17.71%. The Activity (MV4-11 [19]) was 12.68%, the GI50 (CCRF-CEM) was greater than 10 µM and the GI50 (U-937) was 9.51 µM. For the same molecule, the Activity (MV4-11 [20]) was “Dose-Dependent Effect”, the Activity (MV4-11 [21]) was 12.41% and the Activity [22] was “inactive”. It also gave an Activity (MV4-11 [23]) of 21.5%, an Activity (MV4-11 [24]) of 17.04% and an Activity (MV4-11 [25]) of 13.43%. For the same molecule, the Activity (MV4-11 [26]) was 90.95%.
